Assay results taken from patent US20240065988A1, “COMBINED USE OF KETAMINE AND RETIGABINE (EZOGABINE) FOR THE TREATMENT OF PSYCHIATRIC DISORDERS” (Yeda Research and Development Co. Ltd., priority 2021, published 2024).

Legend:
[1] = test system: mice (C57BL/6N); assay: Forced swim test (FST), pharmacological manipulation of KCNQ; type: in vivo, mouse; details: XE991 1 and 3 mg/kg BW in combination with saline (FIG. 23A)
Protocol: C57BL/6N and CD-1 (ICR) male mice aged 10 weeks old were used in these experiments. Ketamine hydrochloride (Ketaset, Zoetis, Germany) was diluted in 0.9% NaCl solution (saline) and administered i.p at 1, 5 or 10 mg/kg BW, depending on the experiment design. The KNCQ inhibitor, XE991 (Alomone labs; Cat #: X-100) was diluted in 5% DMSO and administered i.p at 1 or 3 mg/kg BW. The KCNQ activator, Retigabine (Alomone labs; Cat #: R-100), was diluted in 5% DMSO and administered i.p at 1 or 5 mg/kg BW. As control, mice were injected with a DMSO-saline solution (5% DMSO). For all experiments, mice were tested 30 minutes after injection in the FST or over a period of 36 hours after injection in the social boxes.
Previous studies in rodents have shown that KCNQ function can be regulated with highly-specific agonists and antagonists [V. Barrese et al., Annu Rev Pharmacol Toxicol (2018) 58: 625-648]. To further explore the KCNQ channel as a potential therapeutic target of ketamine, it was examined whether pharmacological inhibition of KCNQ alone or in combination with ketamine had any effects on behavior. To accomplish this, a new cohort of mice received two injections with a combination of drugs. […] To assess the effects of ketamine, XE991 (KCNQ inhibitor), and its combination, these mice were exposed to a FST (FIG. 7A, left). […] The inventors then sought to test whether the effects of ketamine could be mimicked, increased or amplified using retigabine, also known as ezogabine, a selective KCNQ (Kcnq2/3) channel activator. Similarly to the previous experiment, mice were treated with saline, (R,S)-ketamine (10 mg/kg BW), or ketamine in combination with two different concentrations of retigabine (1 and 5 mg/kg BW) (FIG. 7A, right).
Next, it was examined whether retigabine could increase the sustained antidepressant-like effects produced by a single injection of ketamine in mice. Accordingly, a new cohort of mice were treated with a single dose of saline, ketamine, or ketamine in combination with retigabine (1 mg/kg) and antidepressant-like behaviors were assessed using the FST, 5—and 7-days post-injection (FIG. 8A). […] Next, as a potential therapeutic strategy for major depressive disorder (MDD), the synergistic effects of ketamine and retigabine was further investigated by testing whether or not retigabine can increase the antidepressant-like effects produced by ketamine in mice. […] Next, it was tested whether retigabine can produce similar synergistic effects in combination with traditional antidepressants. […] Lastly, using a new cohort of Nex-Cre-Ai9 mice, it was tested whether the adjunctive treatment of ketamine with retigabine, or escitalopram alone, could modify the expression of Kcnq2 mRNA in FACS sorted cells from the vHipp (FIG. 8F).

[2] = test system: Kcnq2 mRNA in glutamatergic neurons of the vHipp; assay: qPCR mRNA levels in FACS-sorted glutamatergic neurons (Ai9+/tdTomato+) and remaining cells (Ai9-/tdTomato-) of Nex-Cre-Ai9 mice; type: in vivo, mouse; details: glutamatergic neurons (tdTomato+) of the vHipp, two days after treatment; ketamine 10, escitalopram 10, retigabine 1 mg/kg/BW
Excerpt: Conditional transgenic mice expressing tdTomato in glutamatergic neurons of the forebrain (Nex-Cre;Ai9) were generated by crossing homozygous Nex-Cre mice [described in S. Goebbels et al., Genesis (2006) 44: 611-621] with homozygous Ai9 mice [Gt(ROSA)26Sortm9(CAG-tdTomato)Hze] [described in L. Madisen et al., Nat Neurosci (2010) 13: 133-140].
In order to further investigate these findings, a conditional reporter mouse line (Nex-Cre-Ai9) was generated where most glutamatergic neurons of the forebrain, including the hippocampus, are fluorescently labeled by tdTomato (Ai9) except for neurons in the dentate gyrus where Neurod6, the promoter used to target glutamatergic neurons driving Cre expression, is not expressed (FIG. 12) [J. Hartmann et al., Mol Psychiatry (2017) 22: 466-475]. Following the same paradigm used in the original cohort, mice were group-housed and injected with (R,S)-ketamine (10 mg/kg BW) or a saline vehicle control. The vHipp of these mice was dissected […] later (i.e. 2 days). Single-cell suspensions were prepared and individual cells were sorted using fluorescence activated cell sorting (FACS) (FIG. 2A) into two separate pools of cells from each mouse. One pool contained glutamatergic neurons (Ai9+) and a second contained all remaining cell types of the vHipp (Ai9-) (FIG. 2A and FIGS. 13A-C). […] These two separate pools of cells were then used to validate the scRNA-seq findings in glutamatergic neurons at the population level using quantitative real-time polymerase chain reaction (qPCR).
Next, it was tested whether retigabine can produce similar synergistic effects in combination with traditional antidepressants.

[3] = test system: Kcnq2 mRNA in primary hippocampal neurons; assay: Kcnq2 mRNA in primary hippocampal neurons stimulated with HNKet alone or plus nifedipine, W-7 or cyclosporine-A; type: cell-based, mouse
Protocol: (§1) Primary hippocampal neurons were generated from E16.5 embryos using a standard primary neuron cell culture protocol previously described [K. G. Schraut et al., Eur JNeurosci (2021) 53: 390-401]. Briefly, dissected hippocampi were harvested in ice-cold dissection medium (HBSS, 7 mM HEPES, 2 mM L-glutamine, 500 U/ml penicillin-streptomycin, all Thermo Fisher Scientific). The tissue was incubated for 10 minutes in 0.25% Trypsin-EDTA with 8 mM HEPES (Thermo Fisher Scientific) in a water bath at 37° C. Tissue was washed three times with serum medium (DMEM, 10% FBS, Thermo Fisher Scientific). The cells were dissociated by titration using glass Pasteur pipets 10 in serum medium and filtered with a 70 tm cell strainer (Corning). Cell culture plates were coated overnight with 0.05 mg/ml poly-D-lysine mol wt 70,000-150,000 (Sigma Aldrich) in 0.15 M borate buffer (pH=8.5). Cells were seeded in 24-well plates at a density of 5×10^4 cells in 1 ml growth medium (Neurobasal A medium, 1 x B27 supplement, 0.25×GlutaMAX, all Thermo Fisher Scientific) per well. All cultures were kept in a humidified incubator at 37° C. and 5% CO2. Growth medium was renewed after 7 days of culture. For all experiments, mature twenty-one-day old primary neuronal cultures were used.
Primary hippocampal neurons were generated from E16.5 embryos and cultured for 21 days, as described above (see Primary Cell Culture). For experiment 1 (FIGS. 3A-K), neurons were treated with a saline solution, (R,S)-ketamine (10 μM) (Ketaset, Zoetis, Germany) or (2R,6R)-HNKet (10 μM) (Sigma, Cat #SML1873-25MG) for 0, 2, 12, 24 or 48 hours and compared to untreated controls. For experiment 2 (FIGS. 6A-D), neurons were stimulated with either a saline solution, (2R,6R)-HNKet (10 μM), or a combination of (2R,6R)-HNKet (10 μM) plus nifedipine (10 μM) (Tocris Bioscience, Cat #1075), W-7 hydrochloride (10 μM) (Tocris, Cat #0369), or cyclosporine-A (1 μM) (Tocris, Cat #1101) for 30 minutes, 1, 2, or 6 hours, and compared to untreated controls. […]

[4] = test system: primary hippocampal neurons; assay: qPCR mRNA expression in primary hippocampal neurons treated with ketamine or HNKet; type: cell-based, mouse; details: 10 μM
Protocol: as §1
Primary hippocampal neurons were generated from E16.5 embryos and cultured for 21 days, as described above (see Primary Cell Culture). For experiment 1 (FIGS. 3A-K), neurons were treated with a saline solution, (R,S)-ketamine (10 μM) (Ketaset, Zoetis, Germany) or (2R,6R)-HNKet (10 μM) (Sigma, Cat #SML1873-25MG) for 0, 2, 12, 24 or 48 hours and compared to untreated controls. For experiment 2 (FIGS. 6A-D), neurons were stimulated with either a saline solution, (2R,6R)-HNKet (10 μM), or a combination of (2R,6R)-HNKet (10 μM) plus nifedipine (10 μM) (Tocris Bioscience, Cat #1075), W-7 hydrochloride (10 μM) (Tocris, Cat #0369), or cyclosporine-A (1 μM) (Tocris, Cat #1101) for 30 minutes, 1, 2, or 6 hours, and compared to untreated controls.
Ketamine treatment regulates Kcnq2 in primary hippocampal neurons To corroborate the previous findings in glutamatergic neurons, it was next examined whether treatment of primary hippocampal neurons with either (R,S)-ketamine or its active metabolite, (2R,6R)-hydroxynorketamine (HNKet), could modify the mRNA expression of the 8 genes tested earlier in glutamatergic neurons. Mouse primary hippocampal neurons are mostly made up of glutamatergic neurons and therefore make a very good model system to further validate the previous in vivo findings. […]

[5] = test system: KCNQ channel (KCNQ2/3, M-current); assay: In vitro whole-cell voltage-clamp recording of M-current (IM) density in primary hippocampal neurons; type: cell-based, mouse; details: HNKet 10 μM, 24 hours vs saline

In the case of `O=C1c2ccccc2C(Cc2ccncc2)(Cc2ccncc2)c2ccccc21` [XE991, 10,10-bis(4-pirinydilmethyl)-9(10H)−antracenone], the “immobility time during the FST” value [1] is reported as “No significant differences”.

For `CN(C)CCC[C@@]1(c2ccc(F)cc2)OCc2cc(C#N)ccc21` [escitalopram], the “Kcnq2 mRNA” value [2] was “No significant changes”.

With `Cl.NCCCCCCNS(=O)(=O)c1cccc2c(Cl)cccc12` [W-7, W-7 hydrochloride] the “effect of inhibitor on the HNKet-induced upregulation of Kcnq2 mRNA” value ([3]; combined with HNKet 10 μM, nifedipine 10 μM, W-7 10 μM, cyclosporine-A 1 μM, 1, 2, 6 hours) was “eliminated the upregulation of Kcnq2”.

For `N[C@@]1(c2ccccc2Cl)CCC[C@@H](O)C1=O` [HNKet, (2R,6R)-hydroxynorketamine], the “mRNA expression of Hspa8, Snap25, Hsp90ab1, Ndufa4, Ilf2, E2f1 and Kcnq2” value ([4]; 2, 12, 24 or 48 hours) was “significant changes”, the “Kcnq2 mRNA expression” value ([4]; 2, 12, 24 or 48 hours vs untreated and saline controls) was “significant upregulation at all time points tested” and the IM current density [5] was “significant increase in IM current density”. For the same compound, the “Kcnq2 mRNA” value ([3]; 1, 2 and 6 hours of stimulation, HNKet 10 μM) was “significant upregulation of Kcnq2 mRNA” and the “expression of Kcnq2” value ([3]; 30 minutes of treatment, HNKet 10 μM) was “No significant differences”.
